From article PMC8839659, “Evolution of DIMBOA-Glc O-Methyltransferases from Flavonoid O-Methyltransferases in the Grasses” (Molecules, 2022)

Legend:
Experiment in all cases: LC-MS/MS product formation
Format in all cases: biochemical
ZmBX12 = biological target: T1, ZmBX12 (Zea mays, UniProt S5S8L0); details: SAM cosubstrate 100 µM, 20 µM substrate, pH 7, 25 °C, 1 h
T1 construct: pASK-IBA37plus, N-terminal His tag, E. coli BL21(DE3), purified
T1 sequence (S5S8L0 1-370): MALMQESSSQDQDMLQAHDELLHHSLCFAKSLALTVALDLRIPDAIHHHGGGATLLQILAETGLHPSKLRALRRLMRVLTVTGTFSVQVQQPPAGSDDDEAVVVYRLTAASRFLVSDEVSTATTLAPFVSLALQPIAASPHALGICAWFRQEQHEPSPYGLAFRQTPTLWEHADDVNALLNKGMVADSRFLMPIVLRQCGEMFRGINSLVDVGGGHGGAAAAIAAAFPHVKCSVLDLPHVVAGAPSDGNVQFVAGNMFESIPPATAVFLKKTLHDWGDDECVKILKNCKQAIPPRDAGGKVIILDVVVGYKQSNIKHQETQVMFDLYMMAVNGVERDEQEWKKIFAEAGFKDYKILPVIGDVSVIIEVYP

ZnBX10 = biological target: T2, ZnBX10 (Zea nicaraguensis, UniProt Z9J3M6HYI4); details: SAM cosubstrate 100 µM, 20 µM substrate, pH 7, 25 °C, 1 h
T2 construct: full-length ORF, codon-optimized synthetic gene in pET100/D-TOPO, N-terminal His tag, E. coli BL21(DE3), purified
T2 sequence (Z9J3M6HYI4 1-373): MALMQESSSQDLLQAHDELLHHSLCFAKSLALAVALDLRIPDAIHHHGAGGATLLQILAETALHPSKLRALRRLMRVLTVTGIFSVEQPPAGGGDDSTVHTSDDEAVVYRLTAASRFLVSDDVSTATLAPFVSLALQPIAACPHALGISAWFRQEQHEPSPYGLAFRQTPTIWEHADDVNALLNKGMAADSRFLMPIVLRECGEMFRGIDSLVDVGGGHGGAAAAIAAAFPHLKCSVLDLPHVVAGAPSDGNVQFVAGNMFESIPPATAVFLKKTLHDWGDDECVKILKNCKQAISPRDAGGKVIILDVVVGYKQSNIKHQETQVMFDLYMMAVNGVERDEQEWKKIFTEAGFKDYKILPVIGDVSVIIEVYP

ZmBX14 = biological target: T3, ZmBX14 (Zea mays, UniProt A0A1P8SEU3); details: SAM cosubstrate 100 µM, 20 µM substrate, pH 7, 25 °C, 1 h
T3 construct: pASK-IBA37plus, N-terminal His tag, E. coli BL21(DE3), purified
T3 sequence (A0A1P8SEU3 1-366): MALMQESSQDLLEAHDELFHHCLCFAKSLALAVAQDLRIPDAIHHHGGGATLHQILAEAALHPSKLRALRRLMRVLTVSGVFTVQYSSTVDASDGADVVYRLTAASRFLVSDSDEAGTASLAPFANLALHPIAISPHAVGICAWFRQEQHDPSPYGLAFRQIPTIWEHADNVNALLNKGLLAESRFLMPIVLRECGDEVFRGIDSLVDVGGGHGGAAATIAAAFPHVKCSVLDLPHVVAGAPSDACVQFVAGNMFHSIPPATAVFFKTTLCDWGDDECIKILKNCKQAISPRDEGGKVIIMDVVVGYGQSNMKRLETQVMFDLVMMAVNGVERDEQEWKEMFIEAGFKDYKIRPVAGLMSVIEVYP

ZmBX10 = biological target: T4, ZmBX10 (Zea mays, UniProt S5S768); details: SAM cosubstrate 100 µM; 20 µM substrate; pH 7; 25 °C; 1 h; product isokaempferide
T4 construct: pASK-IBA37plus, N-terminal His tag, E. coli BL21(DE3), purified
T4 sequence (S5S768 1-375): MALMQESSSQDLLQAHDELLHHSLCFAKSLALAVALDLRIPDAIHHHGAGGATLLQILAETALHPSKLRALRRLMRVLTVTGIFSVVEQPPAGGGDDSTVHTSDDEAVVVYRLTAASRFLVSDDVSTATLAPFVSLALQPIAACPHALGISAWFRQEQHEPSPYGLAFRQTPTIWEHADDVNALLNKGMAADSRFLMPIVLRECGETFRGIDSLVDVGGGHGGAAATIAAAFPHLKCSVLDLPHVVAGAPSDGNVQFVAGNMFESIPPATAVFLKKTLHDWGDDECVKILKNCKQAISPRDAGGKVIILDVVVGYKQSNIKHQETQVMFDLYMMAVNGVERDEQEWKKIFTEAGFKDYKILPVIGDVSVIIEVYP

SbFOMT2 = biological target: T5, SbFOMT2 (Sorghum bicolor, UniProt C5WYJ6); details: SAM cosubstrate 100 µM; 20 µM substrate; pH 7; 25 °C; 1 h; flavonoid 5-O-methylation, trace isokaempferide
T5 construct: gene SORBI_3001G354400; full-length ORF from leaf cDNA, in pET100/D-TOPO or pASK-IBA37plus, N-terminal His tag, E. coli BL21(DE3), purified
T5 sequence (C5WYJ6 1-365): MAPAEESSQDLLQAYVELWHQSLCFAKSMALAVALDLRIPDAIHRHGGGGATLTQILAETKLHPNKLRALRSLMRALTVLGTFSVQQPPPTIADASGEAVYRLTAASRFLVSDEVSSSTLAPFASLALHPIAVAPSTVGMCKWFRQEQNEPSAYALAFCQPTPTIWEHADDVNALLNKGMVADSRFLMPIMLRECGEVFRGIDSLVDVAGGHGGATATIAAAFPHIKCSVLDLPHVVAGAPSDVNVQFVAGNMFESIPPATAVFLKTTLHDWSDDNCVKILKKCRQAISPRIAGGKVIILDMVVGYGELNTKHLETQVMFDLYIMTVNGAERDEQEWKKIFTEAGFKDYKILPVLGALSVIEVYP

ZmBX11 = biological target: T6, ZmBX11 (Zea mays, UniProt S5RK83); details: SAM cosubstrate 100 µM; 20 µM substrate; pH 7; 25 °C; 1 h; product isokaempferide
T6 construct: pASK-IBA37plus, N-terminal His tag, E. coli BL21(DE3), purified
T6 sequence (S5RK83 1-375): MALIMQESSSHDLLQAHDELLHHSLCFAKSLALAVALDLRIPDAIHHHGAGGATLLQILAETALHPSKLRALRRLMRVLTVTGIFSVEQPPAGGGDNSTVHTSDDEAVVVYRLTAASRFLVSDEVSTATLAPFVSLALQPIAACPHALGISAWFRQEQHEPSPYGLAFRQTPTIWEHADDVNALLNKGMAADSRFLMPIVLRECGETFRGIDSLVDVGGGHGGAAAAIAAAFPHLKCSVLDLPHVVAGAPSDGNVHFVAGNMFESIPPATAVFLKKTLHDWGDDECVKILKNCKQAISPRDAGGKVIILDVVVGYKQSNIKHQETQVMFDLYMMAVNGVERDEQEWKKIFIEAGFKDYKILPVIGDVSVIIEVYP

[1] = product HDMBOA-Glc, positive control

SMILES	LC-MS/MS product formation (ZmBX12; [1])	LC-MS/MS product formation (ZnBX10; product HDMBOA-Glc)	LC-MS/MS product formation (ZmBX14; [1])	LC-MS/MS product formation (ZmBX10)	LC-MS/MS product formation (SbFOMT2)	LC-MS/MS product formation (ZmBX12; product isokaempferide)	LC-MS/MS product formation (ZnBX10; product isokaempferide)	LC-MS/MS product formation (ZmBX11)	LC-MS/MS product formation (ZmBX14; lowest activity of the maize BX OMTs)
COc1ccc2c(c1)O[C@H](O[C@@H]1O[C@H](CO)[C@@H](O)[C@H](O)[C@H]1O)C(=O)N2O [DIMBOA-Glc, 2,4-dihydroxy-7-methoxy-1,4-benzoxazin-3-one glucoside]	Besides ZmBX14 and ZmBX12, ZnBX10 also converted DIMBOA-Glc to HDMBOA-Glc	ZnBX10 also converted DIMBOA-Glc to HDMBOA-Glc	Besides ZmBX14 and ZmBX12, ZnBX10 also converted DIMBOA-Glc to HDMBOA-Glc	–	–	–	–	–	–
O=c1c(O)c(-c2ccc(O)cc2)oc2cc(O)cc(O)c12 [kaempferol]	–	–	–	ZmBX10-12 and ZnBX10 produced substantial amounts of the 3-O-methylated derivative isokaempferide	ZmFOMT2 and SbFOMT2 produced only trace amounts of this compound	with ZmBX12 as the most active OMT, followed by ZmBX10, ZmBX11, and ZmBX14	ZmBX10-12 and ZnBX10 produced substantial amounts of the 3-O-methylated derivative isokaempferide	ZmBX10-12 and ZnBX10 produced substantial amounts of the 3-O-methylated derivative isokaempferide	with ZmBX12 as the most active OMT, followed by ZmBX10, ZmBX11, and ZmBX14
